Measurements from patent US20110195049A1, “COMPOSITIONS AND METHODS FOR TREATING MULTIPLE SCLEROSIS” (BIOVISTA, INC., priority 2008, published 2011).
Where a name gives a salt, the structure may show the parent alone.

How the values were obtained:
[1] = disturbance of coordination of movement and a sedative effect; cited from earlier work
NMDA receptor = conditions: dose producing the anti-NMDA effect; cited from earlier work
[2] = system: acute EAE murine model of MS; assay: Acute EAE murine model (MOG-induced), clinical score over 35 days; assay type: in vivo, female C57BL/6J mice

Row | Structure (SMILES) | adverse effects at doses producing the anti-NMDA effect [1] | ED50 of anti-NMDA effect (NMDA receptor) | activity (average clinical score) compared to the vehicle-only treatment group (1F) ([2]; 1.0 mg/kg IP once daily from study day 0, 35-day study, n = 10) | activity (average clinical score) compared to the vehicle-only treatment group (1F) ([2]; 10.0 mg/kg IP once daily (group 5F), at the end of the study) | activity (average clinical score) compared to the vehicle-only treatment group (1F) ([2]; 10.0 mg/kg IP once daily (group 5F), intermediate time points, days 26 and 27)
1 | NC(CCCP(=O)(O)O)C(=O)O (centres unmarked) [AP5, 2-amino-5-phosphonovaleric acid] | neurotoxic effects | 190 mg/kg | – | – | –
2 | Cc1ccc2c(c1)c1c(n2CCc2ccc(C)nc2)CCN(C)C1 [Dimebon, 2,8-dimethyl-5-(2-(6-methyl-3-pyridyl)ethyl)-2,3,4,5-tetrahydro-1H-pyrido[4,3-b]indole dihydrochloride] | – | – | statistically significant | not statistically significant | statistically significant
